Measurements from PubChem BioAssay (NCI).
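How tested: cells in 96-well plates exposed to compound for 48 hours at five concentrations. At the TGI there is no net growth.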

How the values were obtained:
Assay in all cases: NCI anticancer screen, dose series, 48 h
NCI-H522 lung = test system: NCI-H522 lung
SR leukemia = test system: SR leukemia
HCT-116 colon = test system: HCT-116 colon
OVCAR-4 ovarian = test system: OVCAR-4 ovarian
NCI-H226 lung = test system: NCI-H226 lung
NCI-H23 lung = test system: NCI-H23 lung
SN12C renal = test system: SN12C renal
HOP-62 NSCLC = test system: HOP-62 NSCLC
MCF7 breast = test system: MCF7 breast
PC-3 prostate = test system: PC-3 prostate
RXF 393 renal = test system: RXF 393 renal
KM12 colon = test system: KM12 colon
SK-MEL-2 melanoma = test system: SK-MEL-2 melanoma
NCI/ADR-RES ovarian = test system: NCI/ADR-RES ovarian
OVCAR-8 ovarian = test system: OVCAR-8 ovarian
MDA-N = test system: MDA-N
BT-549 breast = test system: BT-549 breast
786-0 renal = test system: 786-0 renal
HS 578T breast = test system: HS 578T breast
CAKI-1 renal = test system: CAKI-1 renal
ACHN renal = test system: ACHN renal
NCI-H460 lung = test system: NCI-H460 lung
SF-268 CNS = test system: SF-268 CNS
LOX IMVI melanoma = test system: LOX IMVI melanoma
MOLT-4 leukemia = test system: MOLT-4 leukemia
MDA-MB-435 = test system: MDA-MB-435
U251 CNS = test system: U251 CNS
M14 melanoma = test system: M14 melanoma
EKVX NSCLC = test system: EKVX NSCLC
SNB-19 CNS = test system: SNB-19 CNS
RPMI-8226 leukemia = test system: RPMI-8226 leukemia
SK-MEL-28 melanoma = test system: SK-MEL-28 melanoma
COLO 205 colon = test system: COLO 205 colon
SF-539 CNS = test system: SF-539 CNS
UACC-257 melanoma = test system: UACC-257 melanoma
K-562 leukemia = test system: K-562 leukemia
HCC-2998 colon = test system: HCC-2998 colon
HT29 colon = test system: HT29 colon
SNB-75 CNS = test system: SNB-75 CNS
HL-60(TB) leukemia = test system: HL-60(TB) leukemia
SK-MEL-5 melanoma = test system: SK-MEL-5 melanoma
SF-295 CNS = test system: SF-295 CNS
HOP-92 NSCLC = test system: HOP-92 NSCLC
IGROV1 ovarian = test system: IGROV1 ovarian
OVCAR-5 ovarian = test system: OVCAR-5 ovarian
CCRF-CEM leukemia = test system: CCRF-CEM leukemia
A498 renal = test system: A498 renal
UO-31 renal = test system: UO-31 renal
A549 NSCLC = test system: A549 NSCLC
SW-620 colon = test system: SW-620 colon
HCT-15 colon = test system: HCT-15 colon
UACC-62 melanoma = test system: UACC-62 melanoma
MALME-3M melanoma = test system: MALME-3M melanoma
OVCAR-3 ovarian = test system: OVCAR-3 ovarian

Measured: TGI

CCc1ccc2oc(=O)ccc2c1
> 100 µM: all assays above
